Experimental data: ChEMBL document CHEMBL1201862, “PubChem BioAssay data set” (2004)
Activity calls are given as the source filed them. Cut-off read from the data, not from the text of the source, for most assays here: actives have a measured EC50 and inactives only a lower limit.

Tests used:
[1] = HEp-2 cell cytotoxicity, dose response, cytotoxicity control for RSV inhibitor project, HTS (AID 2410); format: functional; settings: human respiratory syncytial virus
[2] = Luminescence Cell-Based Dose Retest to Confirm Inhibitors of Cancer Stem Cells. [Related pubchem assays (depositor defined):AID2717, AID2721]; format: functional; settings: Homo sapiens
cells [3] = format: functional, cell-based
cells [4] = format: functional, cell-based; remark: listed apart in the source
[5] = Luminescence Cell-Based Dose Confirmation HTS to Identify Activators of 5'UTR Stem-Loop Driven Alpha-Synuclein mRNA Translation in H4 Neuroglioblastoma Cells. [Related pubchem assays: 1829 (Project Summary), 1814 (Primary HTS)]; format: functional
[6] = Luminescence Cell-Based Dose Response HTS to Identify Activators of Luciferase Translation or Activity in H4 […] Cells. [Related pubchem assays: 1829 (Project Summary), 1814 (Primary HTS)]; format: functional
H4 = experiment: Luminescence Cell-Based Dose Response HTS to Identify Activators of 5'UTR Stem-Loop Driven Prion Protein mRNA Translation in H4 Neuroglioblastoma Cells. [Related pubchem assays: 1829 (Project Summary), 1814 (Primary HTS)]; format: functional; settings: Homo sapiens
[7] = target: T1, Corticotropin-releasing factor receptor 2/Corticotropin-releasing factor-binding protein (Homo sapiens, UniProt P24387+Q13324); experiment: Dose Response confirmation of uHTS hits for small molecule antagonists of the CRF-binding protein and CRF-R2 receptor complex.; format: functional; settings: read-out: IC50_Mean
T1 sequence (Q13324 whole entry): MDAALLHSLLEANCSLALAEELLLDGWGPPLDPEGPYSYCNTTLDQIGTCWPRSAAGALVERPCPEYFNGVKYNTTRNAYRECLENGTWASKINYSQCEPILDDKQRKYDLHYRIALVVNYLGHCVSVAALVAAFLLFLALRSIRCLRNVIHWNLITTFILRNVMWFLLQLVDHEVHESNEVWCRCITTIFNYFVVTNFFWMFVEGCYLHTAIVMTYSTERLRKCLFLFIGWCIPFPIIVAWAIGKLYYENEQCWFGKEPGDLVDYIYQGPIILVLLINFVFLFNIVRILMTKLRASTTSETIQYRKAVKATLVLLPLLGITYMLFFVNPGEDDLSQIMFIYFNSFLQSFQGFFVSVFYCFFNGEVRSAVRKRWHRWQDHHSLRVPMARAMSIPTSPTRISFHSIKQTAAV
T1 sequence (P24387 whole entry): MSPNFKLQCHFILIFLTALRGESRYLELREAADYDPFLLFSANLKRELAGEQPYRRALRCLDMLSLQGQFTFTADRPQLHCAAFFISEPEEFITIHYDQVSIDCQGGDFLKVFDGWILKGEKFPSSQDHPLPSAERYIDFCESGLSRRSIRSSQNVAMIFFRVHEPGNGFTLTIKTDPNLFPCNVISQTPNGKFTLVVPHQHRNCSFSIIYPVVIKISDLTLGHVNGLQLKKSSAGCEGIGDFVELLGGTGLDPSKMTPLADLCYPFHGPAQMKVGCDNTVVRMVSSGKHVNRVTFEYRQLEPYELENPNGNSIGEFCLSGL

[8] = target: T1, Corticotropin-releasing factor receptor 2/Corticotropin-releasing factor-binding protein; experiment: activators of CRF receptor 2 with binding protein – uHTS hits, confirmation (AID 602473); format: functional; settings: read-out: EC50_Mean
[9] = CRF-BP/CRF-R2 complex antagonists, dose response, cell-based, uHTS hits, 384-well (AID 651639); format: functional, Homo sapiens; settings: read-out: IC50_Mean
[10] = inhibitors of firefly luciferase expression or activity, dose response, H4 neuroglioma cells, luminescence (AID 1990); format: functional, cell-based
[11] = Luminescence Cell-Based Dose Response HTS to Identify Inhibitors of 5'UTR Stem-Loop Driven Prion Protein mRNA Translation in H4 Neuroglioblastoma Cells. [Related pubchem assays: 1827 (Project Summary), 1813 (Primary HTS)]; format: functional
[12] = inhibitors of SNCA 5'UTR-driven reporter translation, confirmation, H4 neuroglioma cells, luminescence (AID 1988); format: functional, cell-based
INS1 = experiment: beta cell apoptosis inhibitors, cytokine rescue, dose response, luminescence, retest (AID 449756); format: functional, cell-based; settings: Rattus norvegicus;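 note: cell death triggered by IL-1 beta plus TNF-alpha plus IFN-gamma mixture; protective hits raise ATP signal compared with cytokine alone wells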
BJ [13] = experiment: cytotoxicity toward BJ-TERT fibroblasts, dose response, cell-based, RAS-independent, luminescence (AID 1933); format: functional; settings: Homo sapiens
BJ [14] = experiment: cells; format: functional, cell-based; settings: Homo sapiens
BJ [15] = experiment: cytotoxicity toward BJ-TERT-LT-ST fibroblasts, dose response, cell-based, RAS-independent, luminescence (AID 1935); format: functional; settings: Homo sapiens;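 note: BJ fibroblasts immortalized with TERT plus LT and ST oncogenes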
[16] = cytotoxicity toward DRD oncogenic fibroblasts, dose response, cell-based, non-viral oncogenic, luminescence (AID 1934); format: functional; settings: Homo sapiens

O=C(/C=C/c1ccc(Cl)c([N+](=O)[O-])c1)Nc1cccc(NC(=O)c2ccco2)c1
CC50 [1]: 21.2 µM (active) | AC50 [2]: 2.56 µM (active)

COC(=O)c1cc(S(=O)(=O)NCc2ccccc2OC)cn1C
EC50 (cells [3]): > 350 µM (not active) | EC50 (cells [4]): > 350 µM (not active)

Cc1cccc(-n2ncc3c(NCc4ccco4)ncnc32)c1
EC50 [5]: 4.04 µM (active) | EC50 [6]: 49.1 µM (active) | EC50 (cells [3]): > 350 µM (not active) | EC50 (H4): 64.9 µM (active) | EC50 (cells [4]): 88.7 µM (active)

Cc1ccc(NC(=O)Cn2ncn3c(cc4ccccc43)c2=O)cc1F
IC50 [7]: 9.94 µM (active) | EC50 [8]: > 53 µM (inactive) | IC50 [9]: 7.27 µM (active)

Cc1ccc(Cn2c(SCc3cccnc3)nc3c2c(=O)n(C)c(=O)n3C)cc1
EC50 [10]: > 120 µM (not active) | EC50 [11]: > 120 µM (not active) | EC50 [12]: > 120 µM (not active)

Cc1cc(NC(=O)CSc2nnc(C3CC3)n2N)no1
EC50 [10]: > 120 µM (not active) | EC50 [11]: > 120 µM (not active) | EC50 [12]: > 120 µM (not active)

O=C(N/N=C/c1ccccc1O)C1CC(=O)N(c2ccc(Cl)cc2)C1 (stereo not drawn)
EC50 [10]: 15.2 µM (active) | EC50 [11]: 24.1 µM (active) | EC50 [12]: 7.99 µM (active) | AC50 (INS1): 3.69 µM (active)

COc1ccc(Nc2nc(-c3sc(C)nc3C)cs2)c(OC)c1
EC50 (BJ [13]): 62.3 µM (active) | EC50 (BJ [14]): 4.21 µM (inconclusive) | EC50 (BJ [15]): > 150 µM (inconclusive) | EC50 [16]: 4.81 µM (active)

Cc1ccc(-n2nc3c(=O)n(CCCC(=O)NCc4ccco4)nc(C)c3c2C)cc1
EC50 [10]: 17.1 µM (active) | EC50 [11]: 43 µM (active) | EC50 [12]: > 120 µM (not active)

COc1ccc(-c2csc(Cc3nnc(N4CCOCC4)n3-c3ccccc3)n2)cc1OC
EC50 [10]: > 120 µM (not active) | EC50 [11]: > 120 µM (not active) | EC50 [12]: 19.4 µM (active)

O=C(/C=C/c1cc2ccccc2o1)c1ccccc1O
AC50 [2]: 10.6 µM (active)
